Measurements reported in ChEMBL document CHEMBL1126732, “Synthesis of and radioligand binding studies with a tritiated pinacidil analogue: receptor interactions of structurally different classes of potassium channel openers and blockers” (J Med Chem, 1993).
Where a name gives a salt, the structure may show the parent alone.

Species: Rattus norvegicus
Assay: Vasorelaxant activity expressed as negative logarithm of the concentration causing a 50% inhibition of spontaneous myogenic activity in rat portal vein.
Format: functional

Row | SMILES | pD2
1 | CCC(C)(C)/N=C(\NC#N)Nc1cccnc1 | 8.75
2 | C[C@@H](N/C(=C\[N+](=O)[O-])Nc1cccnc1)C(C)(C)C | 6
3 | C[C@H](N/C(=C\[N+](=O)[O-])Nc1cccnc1)C(C)(C)C | 7.96
4 | CC1(C)Oc2ccc(C#N)cc2[C@H](OC2=CC(=O)CC2)[C@H]1O | 5.26
5 | CC1(C)Oc2ccc(C#N)cc2[C@@H](OC2=CC(=O)CC2)[C@@H]1O | 7.85
6 | CC(N/C(=N\C#N)Nc1ccncc1)C(C)(C)C (stereo in doubt; 11) [PINACIDIL ANHYDROUS] | 7.47
7 | CC(N/C(=N\C#N)Nc1ccncc1)C(C)(C)C (stereo in doubt; 12) [PINACIDIL ANHYDROUS] | 6.11
8 | CC1(C)C=C(n2ccccc2=O)c2cc(C#N)ccc2O1 [BIMAKALIM] | 8.2
9 | CC1(C)Oc2ccc(C#N)cc2C(N2CCCC2=O)C1O (configuration not stated) [CROMAKALIM] | 5.66
10 | CC1=Nc2ccc(Cl)cc2S(=O)(=O)N1 [DIAZOXIDE] | 5.5
11 | CC1(C)Oc2ccc(C#N)cc2[C@@H](N2CCCC2=O)[C@@H]1O [LEVCROMAKALIM] | 7.89
12 | Nc1cc(N2CCCCC2)nc(N)[n+]1OS(=O)(=O)[O-] [MINOXIDIL SULFATE] | 7.14
